For 17 compounds, IC50 results are on record in patent publication US12486302B2, “Somatostatin receptor antagonist compounds and methods of using the same” (CDRD VENTURES INC., priority 2016, dated 2025).

Assay [1] addresses somatostatin type 2 (SSTR2) receptors (Homo sapiens, UniProt P30874). The experiment in a line: PathHunter β-Arrestin assay, antagonist mode, SSTR2. The format is cell-based. Conditions: agonist challenge at EC80. The gist of the method: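 Cells co-expressing PK-tagged human receptor and EA-β-Arrestin were pre-incubated with compound, then challenged with agonist at EC80. β-Gal complementation read by chemiluminescence; % inhibition normalized to EC80 and vehicle controls at 10 concentrations (log 3 steps from 1 μM down to 5e-5 μM), fitted for IC50.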

The target of a further assay is SSTR3 (Homo sapiens, UniProt P32745). Kind of assay: PathHunter β-Arrestin assay, antagonist mode, SSTR3. The class given is cell-based. The conditions noted are these: agonist challenge at EC80. The procedure: The PathHunter® β-Arrestin assay monitors the activation of a GPCR in a homogenous, non-imaging assay format using a technology developed by DiscoveRx called Enzyme Fragment Complementation (EFC) with β-galactosidase (β-Gal) as the functional reporter. […] EA is fused to β-Arrestin and […] is fused to the GPCR of interest. When the GPCR is activated and β-Arrestin is recruited to the receptor, ED and EA complementation occurs, restoring β-Gal activity which is measured using chemiluminescent PathHunter® Detection Reagents. For antagonist determination, cells were pre-incubated with the compounds followed by agonist challenge at the EC80 concentration. Data was normalized to the maximal and minimal response observed in the presence of EC80 ligand and vehicle. Compound activity was analyzed using CBIS data analysis suite ChemInnovation, CA). Percentage inhibition was calculated using the following formula: % Inhibition=100%×(1−(mean signal of test sample-mean signal of vehicle control)/(mean signal of EC80 control-mean signal of vehicle control)). Percentage inhibition was calculated at 10 concentrations in steps on a Log 3 scale ranging from […] to 5e-5 μM. The results were plotted for IC50 calculation.

The structures appear in SMILES notation. pIC50: −log10 of the molar value. *1 amine or outer side, *2 acyl side, *3 side chain or, on linkers, in order; H or OH if unused. Where a SMILES comes first, the peptide text is derived from it. Bridges are numbered along the chain shown (N, C = ends). Triazole bridges read from a SMILES are 1,4-linked. Side-chain parts run from the residue outwards. [ ]: non-standard residue; d: D form. The star is where a group is joined. dPhe(4-CONH2) = NC(=O)c1ccc(C[C@@H](N)C(=O)O)cc1; dPhe(4-CH2NH2) = NCc1ccc(C[C@@H](N)C(=O)O)cc1; NMePhe(4-Cl) = CN[C@@H](Cc1ccc(Cl)cc1)C(=O)O; dPhe(4-NH2) = Nc1ccc(C[C@@H](N)C(=O)O)cc1; Phe(4-Cl) = N[C@@H](Cc1ccc(Cl)cc1)C(=O)O; Dap(N3) = [N-]=[N+]=NC[C@H](N)C(=O)O; d(hCit) = NC(=O)NCCCC[C@@H](N)C(=O)O; NMeY = CN[C@@H](Cc1ccc(O)cc1)C(=O)O; dNMeY = CN[C@H](Cc1ccc(O)cc1)C(=O)O; NMeT = CN[C@H](C(=O)O)[C@@H](C)O; Lys(Me) = CNCCCC[C@H](N)C(=O)O; NMeK = CN[C@@H](CCCCN)C(=O)O; Nicotinoyl = O=C(c1cccnc1)*; dPra = C#CC[C@@H](N)C(=O)O; NMeC = CN[C@@H](CS)C(=O)O; dNMeC = CN[C@H](CS)C(=O)O; dDap = NC[C@@H](N)C(=O)O; CO = O=C([*:1])[*:2]; NHPh = c1ccc(N*)cc1

Sequence of SSTR3 (P32745 whole entry, the tested form may be a part): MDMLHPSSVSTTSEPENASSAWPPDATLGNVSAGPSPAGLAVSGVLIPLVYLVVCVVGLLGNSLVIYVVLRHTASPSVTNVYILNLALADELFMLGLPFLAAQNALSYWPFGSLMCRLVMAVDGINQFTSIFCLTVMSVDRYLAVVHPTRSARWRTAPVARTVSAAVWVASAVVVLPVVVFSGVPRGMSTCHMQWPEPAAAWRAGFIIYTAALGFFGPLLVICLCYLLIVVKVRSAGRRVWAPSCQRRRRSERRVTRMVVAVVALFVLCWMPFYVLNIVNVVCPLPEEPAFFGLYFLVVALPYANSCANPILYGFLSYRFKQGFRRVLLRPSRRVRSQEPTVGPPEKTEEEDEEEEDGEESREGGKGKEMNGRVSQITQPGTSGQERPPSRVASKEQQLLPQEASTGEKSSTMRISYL
Sequence of somatostatin type 2 (SSTR2) receptors (P30874 whole entry): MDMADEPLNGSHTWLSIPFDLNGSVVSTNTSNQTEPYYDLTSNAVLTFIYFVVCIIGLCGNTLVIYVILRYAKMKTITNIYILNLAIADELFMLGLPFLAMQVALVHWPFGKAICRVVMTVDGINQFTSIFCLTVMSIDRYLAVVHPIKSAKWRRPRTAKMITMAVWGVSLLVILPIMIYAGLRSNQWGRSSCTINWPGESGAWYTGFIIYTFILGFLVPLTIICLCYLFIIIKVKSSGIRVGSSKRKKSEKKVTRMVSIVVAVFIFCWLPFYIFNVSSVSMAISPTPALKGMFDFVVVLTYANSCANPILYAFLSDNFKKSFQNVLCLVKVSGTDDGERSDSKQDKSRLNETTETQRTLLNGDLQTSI

On to `C[C@@H](O)[C@@H]1NC(=O)[C@H](CCCCN)NC(=O)[C@@H](CCCCNC(N)=O)NC(=O)[C@H](Cc2ccc(O)cc2)NC(=O)[C@H](NC(=O)[C@@H](N)Cc2ccc(Cl)cc2)CSSC[C@@H](C(=O)N[C@H](Cc2ccc(O)cc2)C(N)=O)NC1=O` [Compound 2, H-Cpa-cyclo[DCys- Tyr-DHoCit-Lys- Thr-Cys]- DTyr-NH2] (H-[Phe(4-Cl)][dC]Y[d(hCit)]KTC[dY]-NH2; disulfide 2-7), for which the pIC50 in assay [1] was 6.74; on SSTR3, below 6.00.
The like results for `C[C@@H](O)[C@@H]1NC(=O)[C@H](CCCCN)NC(=O)[C@@H](CCCCNC(=O)c2cccnc2)NC(=O)[C@H](Cc2ccc(O)cc2)NC(=O)[C@H](NC(=O)[C@@H](N)Cc2ccc(Cl)cc2)CSSC[C@@H](C(=O)N[C@H](Cc2ccc(O)cc2)C(N)=O)NC1=O` [Compound 3, H-Cpa-cyclo[DCys- Tyr-D-(N^ϵ- nicotinoyl)Lys-Lys- Thr-Cys]-DTyr-NH2] (H-[Phe(4-Cl)][dC]Y[dK](Nicotinoyl)KTC[dY]-NH2; disulfide 2-7) were, in that order, 6.60 and below 6.00.
Turning to `C[C@@H](O)[C@@H]1NC(=O)[C@H](CCCCN)NC(=O)[C@@H](Cc2ccc(CN)cc2)NC(=O)[C@H](Cc2ccc(O)cc2)NC(=O)[C@H](NC(=O)[C@@H](N)Cc2ccc(Cl)cc2)CSSC[C@@H](C(=O)N[C@H](Cc2ccc(O)cc2)C(N)=O)NC1=O` [Compound 5, H-Cpa-cyclo[DCys- Tyr-D-(4-aminomethyl)Phe- Lys-Thr-Cys]- DTyr-NH2] (H-[Phe(4-Cl)][dC]Y[dPhe(4-CH2NH2)]KTC[dY]-NH2; disulfide 2-7), the pIC50 in assay [1] was 6.67; at SSTR3 it was below 6.00.
In assay [1], `C[C@@H](O)[C@@H]1NC(=O)[C@H](CCCCN)NC(=O)[C@@H](Cc2ccc(C(N)=O)cc2)NC(=O)[C@H](Cc2ccc(O)cc2)NC(=O)[C@H](NC(=O)[C@@H](N)Cc2ccc(Cl)cc2)Cc2cn(nn2)C[C@@H](C(=O)N[C@H](Cc2ccc(O)cc2)C(N)=O)NC1=O` [Compound 66] (H-[Phe(4-Cl)][dPra]Y[dPhe(4-CONH2)]KT[Dap(N3)][dY]-NH2; triazole 2-7) showed a pIC50 below 6.00.
For the compound `C[C@@H](O)[C@@H]1NC(=O)[C@H](CCCCN)NC(=O)[C@@H](Cc2ccc(C(N)=O)cc2)NC(=O)[C@H](Cc2ccc(O)cc2)NC(=O)[C@H](NC(=O)[C@@H](N)Cc2ccc(Cl)cc2)CC=CC[C@@H](C(=O)N[C@H](Cc2ccc(O)cc2)C(N)=O)NC1=O` [Compound 67], in assay [1], the pIC50 is below 6.00.
The compound `C[C@@H](O)[C@@H]1NC(=O)[C@H](CCCCN)NC(=O)[C@@H](Cc2ccc(C(N)=O)cc2)NC(=O)[C@H](Cc2ccc(O)cc2)NC(=O)[C@H](NC(=O)[C@@H](N)Cc2ccc(Cl)cc2)CNC(=O)C[C@@H](C(=O)N[C@H](Cc2ccc(O)cc2)C(N)=O)NC1=O` [Compound 69, H-Cpa-cyclo [DDap-Tyr- DPhe(4-CONH2)- Lys-Thr-Asp]- DTyr-NH2] (H-[Phe(4-Cl)][dDap]Y[dPhe(4-CONH2)]KTD[dY]-NH2; lactam 2-7) had a pIC50 in assay [1] below 6.00.
In turn, `C[C@@H](O)[C@@H]1NC(=O)[C@H](CCCCN)NC(=O)[C@@H](Cc2ccc(NC(=O)Nc3ccccc3)cc2)NC(=O)[C@H](Cc2ccc(O)cc2)NC(=O)[C@H](NC(=O)[C@@H](N)Cc2ccc(Cl)cc2)CNC(=O)C[C@@H](C(=O)N[C@H](Cc2ccc(O)cc2)C(N)=O)NC1=O` [Compound 70] (H-[Phe(4-Cl)][dDap]Y[dPhe(4-NH2)]([CO-NHPh])KTD[dY]-NH2; lactam 2-7) had a pIC50 in assay [1] below 6.00.
Same read-out and setting: as for `CNCCCC[C@@H]1NC(=O)[C@@H](Cc2ccc(C(N)=O)cc2)NC(=O)[C@H](Cc2ccc(O)cc2)NC(=O)[C@H](NC(=O)[C@@H](N)Cc2ccc(Cl)cc2)CNC(=O)C[C@@H](C(=O)N[C@H](Cc2ccc(O)cc2)C(N)=O)NC(=O)[C@H]([C@@H](C)O)NC1=O` [Compound 71, H-Cpa-cyclo [DDap-Tyr- DPhe(4-CONH2)- Lys(Me)-Thr- Asp]-DTyr-NH2] (H-[Phe(4-Cl)][dDap]Y[dPhe(4-CONH2)][Lys(Me)]TD[dY]-NH2; lactam 2-7), the figure is 7.88.
In assay [1], `C[C@@H](O)[C@@H]1NC(=O)[C@H](CCCCN)N(C)C(=O)[C@@H](Cc2ccc(C(N)=O)cc2)NC(=O)[C@H](Cc2ccc(O)cc2)NC(=O)[C@H](NC(=O)[C@@H](N)Cc2ccc(Cl)cc2)CSSC[C@@H](C(=O)N[C@H](Cc2ccc(O)cc2)C(N)=O)NC1=O` [Compound 72, H-Cpa-cyclo[DCys- Tyr-D-(4- carbamoyl)Phe- (N-alpha-Me)Lys- Thr-Cys]- DTyr-NH2] (H-[Phe(4-Cl)][dC]Y[dPhe(4-CONH2)][NMeK]TC[dY]-NH2; disulfide 2-7) gave a pIC50 of 8.24.
As for `C[C@@H](O)[C@H]1C(=O)N[C@H](C(=O)N[C@H](Cc2ccc(O)cc2)C(N)=O)CSSC[C@@H](NC(=O)[C@@H](N)Cc2ccc(Cl)cc2)C(=O)N[C@@H](Cc2ccc(O)cc2)C(=O)N[C@H](Cc2ccc(C(N)=O)cc2)C(=O)N[C@@H](CCCCN)C(=O)N1C` [Compound 73, H-Cpa-[DCys-Tyr- DPhe(4-carbamoyl)- Lys-NMeThr- Cys]-DTyr-NH2] (H-[Phe(4-Cl)][dC]Y[dPhe(4-CONH2)]K[NMeT]C[dY]-NH2; disulfide 2-7), the pIC50 in assay [1] is 6.26.
`C[C@@H](O)[C@@H]1NC(=O)[C@H](CCCCN)NC(=O)[C@@H](Cc2ccc(C(N)=O)cc2)NC(=O)[C@H](Cc2ccc(O)cc2)N(C)C(=O)[C@H](NC(=O)[C@@H](N)Cc2ccc(Cl)cc2)CSSC[C@@H](C(=O)N[C@H](Cc2ccc(O)cc2)C(N)=O)NC1=O` [Compound 74, H-Cpa-[DCys- NMeTyr-DPhe (4-carbamoyl)- Lys-Thr-Cys]- DTyr-NH2] (H-[Phe(4-Cl)][dC][NMeY][dPhe(4-CONH2)]KTC[dY]-NH2; disulfide 2-7) showed a pIC50 in assay [1] of 6.80.
In turn, `C[C@@H](O)[C@H]1C(=O)N[C@H](C(=O)N[C@H](Cc2ccc(O)cc2)C(N)=O)CSSC[C@@H](NC(=O)[C@@H](N)Cc2ccc(Cl)cc2)C(=O)N(C)[C@@H](Cc2ccc(O)cc2)C(=O)N[C@H](Cc2ccc(C(N)=O)cc2)C(=O)N[C@@H](CCCCN)C(=O)N1C` [Compound 75, H-Cpa-[DCys-NMeTyr-DPhe(4-carbamoyl)-Lys-NMeThr-Cys]-DTyr-NH2] (H-[Phe(4-Cl)][dC][NMeY][dPhe(4-CONH2)]K[NMeT]C[dY]-NH2; disulfide 2-7) gave a pIC50 in assay [1] below 6.00.
Still for that read-out and setting: as for `C[C@@H](O)[C@@H]1NC(=O)[C@H](CCCCN)NC(=O)[C@@H](Cc2ccc(C(N)=O)cc2)NC(=O)[C@H](Cc2ccc(O)cc2)NC(=O)[C@H](NC(=O)[C@@H](N)Cc2ccc(Cl)cc2)CSSC[C@@H](C(=O)N[C@H](Cc2ccc(O)cc2)C(N)=O)N(C)C1=O` [Compound 76, H-Cpa-[DCys- Tyr-DPhe (4-carbamoyl)- Lys-Thr-NMeCys]- DTyr-NH2] (H-[Phe(4-Cl)][dC]Y[dPhe(4-CONH2)]KT[NMeC][dY]-NH2; disulfide 2-7), the figure is 6.40; as for `CN[C@@H](Cc1ccc(Cl)cc1)C(=O)N[C@@H]1CSSC[C@@H](C(=O)N[C@H](Cc2ccc(O)cc2)C(N)=O)NC(=O)[C@H]([C@@H](C)O)NC(=O)[C@H](CCCCN)NC(=O)[C@@H](Cc2ccc(C(N)=O)cc2)NC(=O)[C@H](Cc2ccc(O)cc2)NC1=O` [Compound 77, H—(N-Me)Cpa-cyclo[D-Cys-Tyr-D-Phe(4-carbamoyl)-Lys-Thr-Cys]-D-Tyr-NH2] (H-[NMePhe(4-Cl)][dC]Y[dPhe(4-CONH2)]KTC[dY]-NH2; disulfide 2-7), 8.65; as for `C[C@@H](O)[C@@H]1NC(=O)[C@H](CCCCN)NC(=O)[C@@H](Cc2ccc(C(N)=O)cc2)NC(=O)[C@H](Cc2ccc(O)cc2)NC(=O)[C@H](N(C)C(=O)[C@@H](N)Cc2ccc(Cl)cc2)CSSC[C@@H](C(=O)N[C@H](Cc2ccc(O)cc2)C(N)=O)NC1=O` [Compound 78, H-Cpa- [NMeDCys- Tyr-DPhe (4-carbamoyl)- Lys-Thr-Cys]- DTyr-NH2] (H-[Phe(4-Cl)][dNMeC]Y[dPhe(4-CONH2)]KTC[dY]-NH2; disulfide 2-7), 8.17.
`C[C@@H](O)[C@@H]1NC(=O)[C@H](CCCCN)NC(=O)[C@@H](Cc2ccc(C(N)=O)cc2)NC(=O)[C@H](Cc2ccc(O)cc2)NC(=O)[C@H](NC(=O)[C@@H](N)Cc2ccc(Cl)cc2)CSSC[C@@H](C(=O)N(C)[C@H](Cc2ccc(O)cc2)C(N)=O)NC1=O` [Compound 79, H-Cpa-[DCys- Tyr-DPhe(4- carbamoyl)-Lys- Thr-Cys]- NMeDTyr-NH2] (H-[Phe(4-Cl)][dC]Y[dPhe(4-CONH2)]KTC[dNMeY]-NH2; disulfide 2-7): the pIC50 in assay [1] is 7.54.
In assay [1], `CN[C@@H](Cc1ccc(Cl)cc1)C(=O)N[C@@H]1CSSC[C@@H](C(=O)N(C)[C@H](Cc2ccc(O)cc2)C(N)=O)NC(=O)[C@H]([C@@H](C)O)N(C)C(=O)[C@H](CCCCN)NC(=O)[C@@H](Cc2ccc(C(N)=O)cc2)NC(=O)[C@H](Cc2ccc(O)cc2)N(C)C1=O` [Compound 80, H-NMeCpa-[DCys-NMeTyr-DPhe(4-carbamoyl)-Lys-NMeThr-Cys]-NMeTyr-NH2] (H-[NMePhe(4-Cl)][dC][NMeY][dPhe(4-CONH2)]K[NMeT]C[dNMeY]-NH2; disulfide 2-7) showed a pIC50 below 6.00.
